Patent US20100130549A1, “PSYCHOTROPIC COMPOUNDS, COMPOSITIONS AND METHODS OF USE” (priority 2007, published 2010)

Columns and labels:
BALB/c mice [1] = experiment: Open field test
BALB/c mice [2] = experiment: Rotor rod test (motor activity); format: in vivo; details: 10 mg/kg p.o., 90 min after administration; vs controls
Protocol: The test was performed 90 min after oral administration of the compounds. […] The rotor rod test involves placing the mouse on an elevated rotating bar. In this test, the mouse is placed on the bar such that it is facing the direction opposite to the rotation of the rod. The time lag to fall is determined.

ICR male mice = experiment: Subchronic ip administration (toxicity); format: in vivo
Excerpt: […]. Except for this local irritation no other toxicity was noted.
[…]. […] Except of these local irritations no other toxicity was noted.

BALBc male mice = experiment: Hot plate test; format: in vivo; details: 10 mg/kg orally (sertraline equimolar); vs vehicle treated control
Excerpt: The hot-plate test is widely used to measure pain sensation. The latency in response to heat of mice and rats feet is based on the method described by Eddy et al., Synthetic analgesics. II. […] The method is based on placing an animal on heated (52-56 C) surface and measuring the time to response (raising paw, licking of the paw, jumping or running.
The animals were followed for 6 hr.

[3] = 10 mg/kg (equimolar) ip 1 hr prior, p<0.001 vs controls
[4] = 10 and 30 mg/kg ip ×3/week for 2 weeks, sertraline equimolar

| Compound | sedative effect accompanying the anxiolytic activity (BALB/c mice [1]; orally 90 min prior) | muscle strength and basic motor activity (BALB/c mice [2]) | total time spent in the center (areas 2+3) (BALB/c mice [1]; 10 mg/kg (equimolar) ip 1 hr prior) | frequency to the center (BALB/c mice [1]; 10 mg/kg (equimolar) ip 1 hr prior, controls 1.23) | distance moved (BALB/c mice [1]; [3]) | velocity (BALB/c mice [1]; [3]) | body weight gain versus controls (ICR male mice; [4]) | chemistry blood picture (ICR male mice; [4]) | histopathology of heart, spleen, liver and kidney (ICR male mice; high dose of 30 mg/kg ip, subchronic, capsule of the abdominal organs) | latency to heat sensation (BALBc male mice) |
| --- | --- | --- | --- | --- | --- | --- | --- | --- | --- | --- |
| OCCCC#Cc1cc2c(cc1OC[C@@H]1CNCC[C@H]1c1ccc(F)cc1)OCO2 [If] | not accompanied by a sedative effect | – | – | – | – | – | – | – | – | – |
| CN[C@H]1CC[C@@H](c2ccc(Cl)c(Cl)c2)c2ccccc21 [sertraline, reference compound] | – | did not modify | significantly increase | 1.27 | significantly increase | significantly increase | no difference | did not show a significant change | minimal to mild irritation | significantly increase |
